Among the data in patent US12673946B2, “Pyrimidin-4(3H)-one derivatives as TRPV4 antagonists” (RaQualia Pharma Inc., priority 2020, dated 2026) are IC50 values, retold here.

Some results are limits rather than exact numbers.

A word on the IC50: it is the midpoint of a concentration-inhibition curve. Low readings indicate greater potency, high ones weaker potency.

The assay addresses T1, human TRPV4 (Homo sapiens, UniProt Q9HBA0).
T1 construct: host or cells: tetracycline-inducible Flp-In T-REx 293 cells
Kind of assay: Hypotonicity-induced Ca2+ influx (Fluo-4, FDSS). The format is cell-based. The method in brief: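 Flp-In T-REx 293 cells with tetracycline-induced human TRPV4, loaded with Fluo-4 for 60 min at 25 °C. Compound added 5 min before hypotonic mannitol/CaCl2 solution. Ca2+ signal recorded for 4.5 min on FDSS.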

The mark [1] stands for this setting: Flp-In T-REx 293 cells expressing human TRPV4, examples listed under heading 'Human IC50<50 nM'.
Setting [2] is: Flp-In T-REx 293 cells stably expressing human TRPV4, compounds listed by potency bin (<10 nM Tables 96-1/96-2, <3 nM Table 97).

T1 sequence (Q9HBA0 whole entry): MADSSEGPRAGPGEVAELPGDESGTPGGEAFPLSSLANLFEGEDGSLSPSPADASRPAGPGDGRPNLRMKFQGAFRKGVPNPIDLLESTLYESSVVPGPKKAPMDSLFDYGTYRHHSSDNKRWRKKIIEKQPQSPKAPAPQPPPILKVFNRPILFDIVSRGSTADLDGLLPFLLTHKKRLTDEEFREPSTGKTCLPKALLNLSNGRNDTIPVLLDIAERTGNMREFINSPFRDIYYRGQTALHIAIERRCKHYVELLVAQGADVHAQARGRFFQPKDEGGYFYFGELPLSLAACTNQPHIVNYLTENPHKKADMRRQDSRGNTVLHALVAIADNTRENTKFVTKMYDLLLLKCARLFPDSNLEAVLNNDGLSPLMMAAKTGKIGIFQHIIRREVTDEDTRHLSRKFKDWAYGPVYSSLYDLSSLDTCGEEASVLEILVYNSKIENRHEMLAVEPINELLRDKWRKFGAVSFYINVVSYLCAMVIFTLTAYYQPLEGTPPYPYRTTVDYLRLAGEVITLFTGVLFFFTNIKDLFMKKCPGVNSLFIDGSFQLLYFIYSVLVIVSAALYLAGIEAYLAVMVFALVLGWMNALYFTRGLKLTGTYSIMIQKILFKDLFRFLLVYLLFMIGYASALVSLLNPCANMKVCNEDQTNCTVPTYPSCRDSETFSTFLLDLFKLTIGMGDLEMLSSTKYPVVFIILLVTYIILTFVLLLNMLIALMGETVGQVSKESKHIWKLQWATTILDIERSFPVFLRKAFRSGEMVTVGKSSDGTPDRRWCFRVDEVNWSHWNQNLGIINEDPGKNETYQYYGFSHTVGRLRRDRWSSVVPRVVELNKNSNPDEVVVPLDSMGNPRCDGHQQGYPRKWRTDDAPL

In the case of `O=C([C@H](O)c1cccc(-c2cccc(C(F)(F)F)c2)c1)N1CCCc2nc(C3(c4cncc(-c5ccccc5)c4)CC3)[nH]c(=O)c2C1` [56-5], the IC50 under setting [1] is < 50 nM and the half-inhibitory concentration (IC50) under setting [2] is < 10 nM.

Regarding `O=C([C@H](O)c1cccc(-c2cccc(OC(F)(F)F)c2)c1)N1CCCc2nc(C3(c4cncc(-c5ccccc5)c4)CC3)[nH]c(=O)c2C1` [56-6], the IC50 is, setting by setting: under setting [1], < 50 nM; under setting [2], < 10 nM.

For the molecule `O=C(Cc1cccc(-c2cccc(F)c2)c1)N1CCCc2nc(C3(c4ccccc4)CC3)[nH]c(=O)c2C1` [57-1], the IC50 is, setting by setting: under setting [1], < 50 nM; under setting [2], < 10 nM.

Regarding `O=C(Cc1cccc(-c2cccc(OC(F)(F)F)c2)c1)N1CCCc2nc(C3(c4ccccc4)CC3)[nH]c(=O)c2C1` [57-2], the IC50 runs as follows: under setting [1], < 50 nM; under setting [2], < 3 nM.

As for `O=C(Cc1cccc(-c2cccc(C(F)(F)F)c2)c1)N1CCCc2nc(C3(c4ccccc4)CC3)[nH]c(=O)c2C1` [57-3], the IC50 is < 50 nM under setting [1] and < 10 nM under setting [2].

For the molecule `CC(C)(C)c1cccc(-c2cccc(CC(=O)N3CCCc4nc(C5(c6ccccc6)CC5)[nH]c(=O)c4C3)c2)c1` [57-4], the IC50 by setting is: under setting [1], < 50 nM; under setting [2], < 10 nM.

Turning to `CC(C)c1cccc(-c2cccc(CC(=O)N3CCCc4nc(C5(c6cccc(Cl)c6)CC5)[nH]c(=O)c4C3)c2)c1` [57-5], the IC50 reads like this: under setting [1], < 50 nM; under setting [2], < 10 nM.

As for `CC(C)(C)c1cccc(-c2cccc(CC(=O)N3CCCc4nc(C5(c6cccc(Cl)c6)CC5)[nH]c(=O)c4C3)c2)c1` [57-6], the IC50 runs as follows: under setting [1], < 50 nM; under setting [2], < 10 nM.

For `O=C(Cc1cccc(-c2cccc(C(F)(F)F)n2)c1)N1CCCc2nc(C3(c4cccc(Cl)c4)CC3)[nH]c(=O)c2C1` [57-7], the IC50 under setting [1] is < 50 nM and the IC50 under setting [2] is < 10 nM.

Consider `O=C(Cc1cccc(-c2cccc(OC(F)(F)F)c2)c1)N1CCCc2nc(C3(c4cccc(Cl)c4)CC3)[nH]c(=O)c2C1` [57-8], for which the IC50 reads like this: under setting [1], < 50 nM; under setting [2], < 10 nM.

`O=C(Cc1cccc(-c2cc(F)cc(Cl)c2)c1)N1CCCc2nc(C3(c4cccc(Cl)c4)CC3)[nH]c(=O)c2C1` [57-9]: the IC50 runs as follows: under setting [1], < 50 nM; under setting [2], < 10 nM.

With `O=C(N1CCCc2nc(C3(c4ccccc4)CC3)[nH]c(=O)c2C1)C(F)(F)c1cccc(-c2cccc(C(F)(F)F)c2)c1` [58-1], the IC50 under setting [1] is < 50 nM and the IC50 under setting [2] is < 10 nM.

Take `CC(C)(C)c1cccc(-c2cccc(C(F)(F)C(=O)N3CCCc4nc(C5(c6ccccc6)CC5)[nH]c(=O)c4C3)c2)c1` [58-2]: the concentration for half-maximal inhibition (IC50) was < 50 nM under setting [1] and < 10 nM under setting [2].

With `CC(C)Oc1cccc(-c2cccc(C(F)(F)C(=O)N3CCCc4nc(C5(c6ccccc6)CC5)[nH]c(=O)c4C3)c2)c1` [58-3], the IC50 is < 50 nM under setting [1] and < 10 nM under setting [2].

On to `O=C(N1CCCc2nc(C3(c4ccccc4)CC3)[nH]c(=O)c2C1)C(F)(F)c1cccc(-c2cccc(C3CC3)c2)c1` [58-4], for which the IC50 is, setting by setting: under setting [1], < 50 nM; under setting [2], < 10 nM.

For `O=C(N1CCCc2nc(C3(c4ccccc4)CC3)[nH]c(=O)c2C1)C(F)(F)c1cccc(-c2cccc(OC(F)(F)F)c2)c1` [58-5], the IC50 is < 50 nM under setting [1] and < 10 nM under setting [2].

In the case of `CC(C)N(Cc1ccccc1)C(=O)c1csc(C2(c3nc4c(c(=O)[nH]3)CN(C(=O)[C@H](O)c3cccc(C(F)(F)F)c3)CCC4)CC2)c1` [59-1], the 50% inhibitory concentration (IC50) is < 50 nM under setting [1] and < 10 nM under setting [2].

Regarding `CN(C(=O)c1csc(C2(c3nc4c(c(=O)[nH]3)CN(C(=O)[C@H](O)c3cccc(C(F)(F)F)c3)CCC4)CC2)c1)C1CCCCC1` [59-2], the IC50 under setting [1] was < 50 nM and the IC50 under setting [2] is < 10 nM.

In the case of `CN(Cc1ccccc1)C(=O)c1csc(C2(c3nc4c(c(=O)[nH]3)CN(C(=O)[C@H](O)c3cccc(C(F)(F)F)c3)CCC4)CC2)c1` [59-3], the IC50 under setting [1] was < 50 nM and the IC50 under setting [2] is < 10 nM.

In the case of `O=C(c1csc(C2(c3nc4c(c(=O)[nH]3)CN(C(=O)[C@H](O)c3cccc(C(F)(F)F)c3)CCC4)CC2)c1)N1Cc2ccccc2C1` [59-4], under setting [1], the IC50 is < 50 nM.

With `CC(C)N(C)C(=O)c1csc(C2(c3nc4c(c(=O)[nH]3)CN(C(=O)[C@H](O)c3cccc(C(F)(F)F)c3)CCC4)CC2)c1` [59-5], the IC50 under setting [1] is < 50 nM.

For the molecule `O=C(NCc1ccccc1)c1csc(C2(c3nc4c(c(=O)[nH]3)CN(C(=O)[C@H](O)c3cccc(C(F)(F)F)c3)CCC4)CC2)c1` [59-6], the IC50 under setting [1] is < 50 nM.

For the molecule `CN(Cc1cccc2ccccc12)C(=O)c1csc(C2(c3nc4c(c(=O)[nH]3)CN(C(=O)[C@H](O)c3cccc(C(F)(F)F)c3)CCC4)CC2)c1` [59-10], the IC50 reads like this: under setting [1], < 50 nM; under setting [2], < 10 nM.

For `CN(Cc1ccc(Oc2ccccc2)cc1)C(=O)c1csc(C2(c3nc4c(c(=O)[nH]3)CN(C(=O)[C@H](O)c3cccc(C(F)(F)F)c3)CCC4)CC2)c1` [59-11], the 50% inhibitory concentration (IC50) is, setting by setting: under setting [1], < 50 nM; under setting [2], < 10 nM.

For the molecule `O=C(c1csc(C2(c3nc4c(c(=O)[nH]3)CN(C(=O)[C@H](O)c3cccc(C(F)(F)F)c3)CCC4)CC2)c1)N(Cc1ccccc1)Cc1ccccc1` [59-12], the IC50 was < 50 nM under setting [1] and < 10 nM under setting [2].

Consider `CN(C(=O)c1csc(C2(c3nc4c(c(=O)[nH]3)CN(C(=O)[C@H](O)c3cccc(C(F)(F)F)c3)CCC4)CC2)c1)C(c1ccccc1)c1ccccc1` [59-13], for which the IC50 is, setting by setting: under setting [1], < 50 nM; under setting [2], < 10 nM.

With `CC(C)N(C(=O)c1csc(C2(c3nc4c(c(=O)[nH]3)CN(C(=O)[C@H](O)c3cccc(C(F)(F)F)c3)CCC4)CC2)c1)C(C)C` [59-14, (R)-5-(1-(6-(2-hydroxy-2-(3-(trifluoromethyl)phenyl)acetyl)-4-oxo-4,5,6,7,8,9-hexahydro-3H-pyrimido[5,4-c]azepin-2-yl)cyclopropyl)-N,N-diisopropylthiophene-3-carboxamide], the IC50 is < 50 nM under setting [1] and < 10 nM under setting [2].

In the case of `CC(C)N(C(=O)c1csc(C2(c3nc4c(c(=O)[nH]3)CN(C(=O)[C@H](O)c3cccc(C(F)(F)F)c3)CCC4)CC2)c1)C1CCCCC1` [59-15], the IC50 by setting is: under setting [1], < 50 nM; under setting [2], < 10 nM.

For `O=C([C@H](O)c1cccc(C(F)(F)F)c1)N1CCCc2nc(C3(c4cc(C(=O)N(Cc5ccccc5)C5CCCCC5)cs4)CC3)[nH]c(=O)c2C1` [59-16], the IC50 runs as follows: under setting [1], < 50 nM; under setting [2], < 10 nM.

`CN(Cc1ccc2ccccc2c1)C(=O)c1csc(C2(c3nc4c(c(=O)[nH]3)CN(C(=O)[C@H](O)c3cccc(C(F)(F)F)c3)CCC4)CC2)c1` [59-17]: the IC50 under setting [1] was < 50 nM and the IC50 under setting [2] is < 10 nM.

In the case of `O=C([C@H](O)c1cccc(C(F)(F)F)c1)N1CCCc2nc(C3(c4cc(C(=O)N(C5CCCCC5)C5CCCCC5)cs4)CC3)[nH]c(=O)c2C1` [59-18], the IC50 runs as follows: under setting [1], < 50 nM; under setting [2], < 10 nM.

On to `CN(C(=O)c1csc(C2(c3nc4c(c(=O)[nH]3)CN(C(=O)[C@H](O)c3cccc(C(F)(F)F)c3)CCC4)CC2)c1)C(C)(C)C` [59-19], for which, under setting [1], the IC50 is < 50 nM.

Consider `CC(=O)c1cccc(C2(c3nc4c(c(=O)[nH]3)CN(C(=O)[C@H](O)c3cccc(C(F)(F)F)c3)CCC4)CC2)c1` [60-1, (R)-2-(1-(3-acetylphenyl)cyclopropyl)-6-(2-hydroxy-2-(3-(trifluoromethyl)phenyl)acetyl)-3,5,6,7,8,9-hexahydro-4H-pyrimido[5,4-c]azepin-4-one], for which the IC50 under setting [1] is < 50 nM.
